From patent US12606540B2, “Triazolone compound” (MEDSHINE DISCOVERY INC., priority 2020, dated 2026) come the findings set out here.

Broadly, the IC50 is the concentration that gives 50% inhibition. Higher therefore signals a need for much substance. A word on the EC50: it is the concentration at which the effect is half-maximal. The low end stands for higher potency in that assay, the high end for lower potency in that assay. Usually AUC(0-inf) stands for total exposure, with the tail of the curve extrapolated. Higher therefore signals more exposure. As a reminder, the AUC(0-t) is exposure summed from dosing to a finite time, without extrapolation to infinity. Low values mean less exposure, high ones more exposure. In general, half-life refers to the time in which the quantity being followed falls by half. Usually Tmax stands for the time at which the peak concentration occurs. By Cmax is commonly meant the maximum level reached in the sampled fluid or tissue. Broadly, the Papp A→B is how fast a substance crosses the layer from the apical side. A higher Papp A→B goes with ready permeation. One may read the Papp B→A as the apparent permeability from the basolateral to the apical side of a cell layer. As usually defined, the Papp is the rate of passage across a membrane or cell layer, normalised by area and donor concentration. Higher therefore signals fast passage. As usually defined, the efflux ratio is a quotient of directional permeabilities that is used to spot active efflux.

Read-outs that look alike come from different tables or passages of the source.

For one series, the target named is DHODH enzyme (Homo sapiens, UniProt Q02127). Briefly: DHODH enzyme inhibitory activity in vitro (resazurin fluorescence). The class given is biochemical. The conditions noted are these: 5 nM DHODH, 15 μM L-DHO, 80 μM Resazurin. An excerpt:
The DHODH inhibitory activity of the compounds was detected by the following experimental method, and the experimental results are as shown in Table 1.
DHODH uses flavin mononucleotide FMN to catalyze the oxidation of dihydrooratic acid DHO to produce oratic acid, while the re-oxidation of FMN requires the participation of coenzyme CoQ. In the experiment of detecting the DHODH enzyme activity, CoQ was replaced by Resazurin dye as the final electron acceptor in the enzyme activity reaction. Resazurin solution is blue, and the resorufin generated after reduction has red fluorescence, and the fluorescence signal can be detected under the 535 nm of excitation wavelength and the 590 nm of emission wavelength. The components of the reaction buffer used in the experiment were 100 mM Hepes pH 7.0, 150 mM NaCl, 0.3% CHAPS, 0.5 mg/mL BSA, 0.1 μM FMN and 1% DMSO. The final concentration of DHODH enzyme in the reaction system was 5 nM, and the final concentration of substrate L-DHO was 15 μM, the final concentration of indicator Resazurin was 80 μM. The components of the reaction stop buffer were 100 mM Hepes pH 7.0 and 5 mM Orotate. The specific method was as follows: 2-fold final concentration of the DHODH enzyme solution was mixed with the compound, incubated at room temperature for 20 min, 2-fold final concentration of the substrate mixture solution of L-DHO and resazurin was added and reacted, incubated at room temperature away from light for 45 min. Then the reaction was stopped by adding 2-fold final concentration of the reaction stop buffer to the reaction system, and incubated at room temperature for 10 min, the fluorescence signal of the reaction system was detected with EnVision under the condition of Ex/Em=535/590 nm.
Background: Resazurin is reduced to fluorescent resorufin, in cell work by metabolically active cells.

Series [1] deals with influenza virus A/Weiss/43 (H1N1). Nature of the series: Influenza virus cytopathic effect (CPE) experiment in MDCK cells. The class given is cell-based. Conditions: unidentified influenza virus, H1N1, 120 h, 5 days incubation, CCK8. For orientation: Protection from cytopathic effect is a common read-out in antiviral testing.
A short description of series [2]: Pharmacokinetic evaluation in mice (IV and PO). The class given is in vivo, female Balb/c mice. The conditions noted are these: for AUC(0-inf) / AUC(0-t) / clearance / half-life / MRT last / Vd / Tmax / C0 / Cmax: female, Balb/c, mouse, plasma; for MRT last: read-out: MRT0-last; for Vd: read-out: VdSS. The method, then: Experiment process: 0.04 mg/mL of a clarified solution of the test compound in 5% DMSO/10% Solutol solution/85% water was injected into female Balb/c mice (overnight fasting, 7-9 weeks of age) via tail vein, with dosage of 0.2 mg/kg. 0.1 mg/mL of the test compound in 5% DMSO/10% Solutol solution/0.2% Tween80/84.8% water was administered by gavage to female Balb/c mice (overnight fasting, 7-9 weeks of age), with dosage of 1 mg/kg. About 30 μL of blood was collected from the jugular vein at 0.0833, 0.25, 0.5, 1.0, 2.0, 4.0, 8.0, 10 and 24 h and from the tail vein at 0.25, 0.5, 1.0, 2.0, 4.0, 8.0 and 24 h after administration for both groups of animals, and were placed in anticoagulation tubes with EDTA-K2, and the blood was separated by centrifugation to obtain plasma. Plasma concentrations were detected by LC-MS/MS, and relevant pharmacokinetic parameters were calculated using WinNonlin™ Version 6.3 (Pharsight, Mountain View, CA) pharmacokinetic software with a non-compartmental model linear logarithmic trapezoid method.

The test system of the next series is MDR1 (P-glycoprotein). Briefly: Permeability evaluation on MDR1-MDCK II cell line. Conditions: dog, MDCK-MDR1, pH 7.4.
The test system of series [3] is human peripheral blood mononuclear cells. Nature of the series: Proliferation inhibition of peripheral blood mononuclear cells (flow cytometry). The class given is cell-based. Conditions: PBMC, PHA-M 5 μg/mL stimulation, 48 hours. The method, then: Flow cytometry was used to detect cell proliferation of human peripheral blood mononuclear cells.
• Cell complete medium: 445 mL of RPMI1640 cell culture+50 mL of fetal bovine serum+5 mL of double antibody • Buffer 1: 9.9 mL of phosphate buffer+0.1 mL of 10% bovine serum protein • Buffer 2: 10 mL of fetal bovine serum+490 mL of phosphate buffer 3.2 Cell Thawing • 3.2.1 20 mL of cell complete medium was added to a 50 mL of centrifuge tube and pre-heated in a 37° C. water bath for 5 minutes; • 3.2.2 the cell cryotubes were removed from the liquid nitrogen storage tank and placed on dry ice for 5-10 minutes to allow the liquid nitrogen to evaporate fully; • 3.2.3 the cell cryotubes were clamped with forceps and placed in the water bath, and shaken gently to thaw the frozen cells quickly; • 3.2.4 the thawed cells were transferred to the pre-heated cell complete medium with a pipette, centrifuged at 350 g for 5 min, then the supernatant was discarded, and the cells was resuspended by adding 10 mL of phosphate buffer; • 3.2.5 counting by cell counter, and cell viability and cell count were recorded. 3.3 Cell Labeling • 3.3.1 Cell proliferation labeling solution (CellTrace™ Violet, 1:1000 dilution) was prepared • 3.3.2 the above mixture was centrifuged at 350 g for 5 minutes, and the supernatant was discarded, then the cells (20×10^6/mL) were resuspended by adding Buffer 1, and the resuspended cells were gently blown by pipette, and an equal volume of cell proliferation labeling solution (prepared in 3.3.1) was added, and gently blown well by pipette; • 3.3.3 incubating in a 5% CO2, 37° C. cell incubator for 18 minutes; • 3.3.4 the 5-fold volume of cell complete medium was added and leaved at room temperature for 5 minutes to terminate the staining reaction; • 3.3.5 the above mixture was centrifuged at 350 g for 5 minutes, and the supernatant was discarded, then the cells were resuspended by adding 10 mL of cell complete medium, counted by cell counter, and cell viability and cell count were recorded; • 3.3.6 the above mixture was centrifuged at 350 g for 5 minutes, and the supernatant was discarded, then the corresponding volume of cell complete medium was added according to the cell counting results, and the density of the resuspended cells was 2×10^6/mL and was to be used. 3.4 Cell Proliferation Stimulation • 3.4.1 50 μL/well prepared cell suspension (1×10^5 cells/well), 50 μL of 4×PHA-M (the final concentration is 5 μg/mL), 50 μL of 4×test compound, 50 μL of cell complete medium were added to the wells of 96-well cell culture plate, and the corresponding control group was set up; (total volume of the reaction system is 200 μL) • 3.4.2 the cell culture plate was placed and incubated in a 5% CO2, 37° C. cell incubator for 48 hours. 3.5 Cell Proliferation Detection • 3.5.1 the above mixture was centrifuged at 350 g for 5 minutes and the supernatant was transferred to a new cell culture plate and stored at −80° C.; • 3.5.2 200 μL of Buffer 2 was add to the wells of the culture plate, and the above mixture was centrifuged at 350 g and the supernatant was discarded; • 3.5.3 cell dead or living staining solution (7-AAD, 1:100 dilution) was prepared with Buffer 2; • 3.5.4 100 μL/well of dead or living staining solution was added, and gently blown and mixed well by pipette, and stained at room temperature for 10 min; • 3.5.5 cell proliferation was detected by flow cytometry analyzer and analyzed by Flowjo software.
(In general: Flow cytometry measures light scatter and fluorescence of single cells or particles in a stream.)

Chain of DHODH enzyme (Q02127 whole entry): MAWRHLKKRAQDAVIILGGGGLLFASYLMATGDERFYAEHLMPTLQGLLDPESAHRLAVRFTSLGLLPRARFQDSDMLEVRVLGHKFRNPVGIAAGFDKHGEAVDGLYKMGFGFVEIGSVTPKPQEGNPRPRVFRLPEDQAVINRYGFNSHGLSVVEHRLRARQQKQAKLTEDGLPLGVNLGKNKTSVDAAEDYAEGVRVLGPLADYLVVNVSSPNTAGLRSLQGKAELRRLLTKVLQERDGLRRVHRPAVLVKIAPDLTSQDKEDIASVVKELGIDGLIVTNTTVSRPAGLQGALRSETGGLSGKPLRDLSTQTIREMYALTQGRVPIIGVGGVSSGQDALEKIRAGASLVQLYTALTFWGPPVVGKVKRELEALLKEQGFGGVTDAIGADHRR

In the case of `CCn1c(CO)nn(-c2cc(O[C@@H](C)C(F)(F)F)c(/C(F)=C/c3cccnc3OC)cc2F)c1=O` [Compound 6], the concentration for half-maximal inhibition (IC50) on DHODH enzyme is 12.4 nM. For the same molecule, the midpoint of the response in series [1], the EC50, lay at 67 nM. In addition, in series [2] (IV 0.2 mg/kg), the Tlast is on record as 24.0 h, the AUC(0-inf) amounted to 2.13 µM·h, the AUC(0-t) is 1.96 µM·h and the clearance is 3.14 mL/min/kg. Further, in series [2] (IV 0.2 mg/kg), the half-life is 6.83 h, the MRT last amounted to 5.93 h, the Vd is 1.53 L/kg and the C0 turned out to be 640 nM. In series [2] (PO 1 mg/kg), this molecule came in with an F of 85.4%, a Tlast of 24.0 h, a total exposure AUC(0-inf) of 9.08 µM·h and an AUC(0-t) of 7.79 µM·h. For the same molecule, in series [2] (PO 1 mg/kg), the Tmax was 2 h, the half-life was 9.19 h, the MRT last is 7.76 h and the Cmax came to 935 nM. Also, in the series on MDR1 (P-glycoprotein), the Papp A→B at 150 min, 2 μM amounted to 3.72 ×10⁻⁶ cm/s; the Papp B→A at 150 min, 2 μM is 3.55 ×10⁻⁶ cm/s; the Papp at 150 min, 2 μM was in the range of 1 to 5.5 ×10⁻⁶ cm/s; the efflux ratio at 150 min, 2 μM came to 0.95.

With `CCn1c(CO)nn(-c2nc(O[C@@H](C)C(F)(F)F)c(/C(F)=C/c3ncccc3Cl)cc2F)c1=O` [Compound 25], the IC50 amounted to 6 nM on DHODH enzyme and 2 nM in series [3].

As for `CCn1c(CO)nn(-c2cc(O[C@@H](C)C(F)(F)F)c(/C(F)=C/c3cccnc3Cl)cc2F)c1=O` [Compound 26], inhibition on DHODH enzyme was half-maximal at 1.5 nM (IC50). The molecule further returned an EC50 in series [1] of 2.4 nM. It took 4.6 nM to reach half-maximal inhibition in series [3] (IC50). In series [2] (IV 0.2 mg/kg), this molecule came in with a Tlast of 24 h, an AUC(0-inf) of 2.86 µM·h, an AUC(0-t) of 2.29 µM·h and a clearance of 2.32 mL/min/kg. For the same molecule, in series [2] (IV 0.2 mg/kg), the half-life is 9.68 h, the MRT last came to 8.04 h, the Vd was 1.93 L/kg and the C0 was 451 nM. In series [2] (PO 1 mg/kg), the F is 80.2%, the AUC(0-inf) came out at 13 µM·h, the AUC(0-t) is 9.2 µM·h and the Tmax came out at 1 h. Moreover, in series [2] (PO 1 mg/kg), the half-life is 14.8 h, the MRT last is 8.9 h and the concentration peaked (Cmax) at 872 nM. In the series with MDR1 (P-glycoprotein), the Papp A→B at 150 min, 2 μM was 8.59 ×10⁻⁶ cm/s; the Papp B→A at 150 min, 2 μM is 7.76 ×10⁻⁶ cm/s; the Papp at 150 min, 2 μM is over 5.5 ×10⁻⁶ cm/s; the efflux ratio at 150 min, 2 μM is 0.9.

On DHODH enzyme, `CCn1c(CO)nn(-c2cc(O[C@@H](C)C(F)(F)F)c(/C(F)=C/c3cnccc3Cl)cc2F)c1=O` [Compound 28] showed an IC50 of 2.4 nM. In series [1], this molecule displayed an EC50 of 43 nM. Also, in series [3], the IC50 is 8.4 nM. In addition, in the series with MDR1 (P-glycoprotein), the Papp A→B at 150 min, 2 μM amounted to 8.65 ×10⁻⁶ cm/s; the Papp B→A at 150 min, 2 μM was 10.7 ×10⁻⁶ cm/s; the Papp at 150 min, 2 μM was over 5.5 ×10⁻⁶ cm/s; the efflux ratio at 150 min, 2 μM was 1.24.

On to `CCn1c(CO)nn(-c2nc(O[C@@H](C)C(F)(F)F)c(/C=C/c3c(F)cccc3Cl)cc2F)c1=O` [Compound 36], for which the results for the IC50 (against DHODH enzyme; in series [3]) were 1.5 nM and 5.9 nM, respectively. The same molecule had an EC50 in series [1] of 10 nM.

As to `CCn1c(CO)nn(-c2cc(O[C@@H](C)C(F)(F)F)c(/C(F)=C/c3cccnc3C(F)F)cc2F)c1=O` [Compound 39], inhibition against DHODH enzyme was half-maximal at 1.3 nM (IC50). Further, the EC50 in series [1] was found to be 42 nM. Besides, inhibition in series [3] was half-maximal at 14.4 nM (IC50). In series [2] (IV 0.2 mg/kg), the Tlast came to 24.0 h, the AUC(0-inf) worked out at 2.24 µM·h, the AUC(0-t) was 1.84 µM·h and the clearance came to 2.86 mL/min/kg. In series [2] (IV 0.2 mg/kg), the half-life was 10.4 h, the MRT last stood at 7.83 h, the Vd worked out at 2.31 L/kg and the C0 stood at 419 nM. In addition, in series [2] (PO 1 mg/kg), the F was determined as 97.4%, the Tlast is on record as 24.0 h, the AUC(0-inf) is 10.6 µM·h and the AUC(0-t) came to 8.95 µM·h. In series [2] (PO 1 mg/kg), the Tmax is 1.5 h, the half-life is 8.86 h, the MRT last was 8.67 h and the highest concentration (Cmax) turned out to be 787 nM. Further, in the series with MDR1 (P-glycoprotein), the Papp A→B at 150 min, 2 μM was determined as 10.1 ×10⁻⁶ cm/s; the Papp B→A at 150 min, 2 μM was found to be 13.9 ×10⁻⁶ cm/s; the Papp at 150 min, 2 μM is over 5.5 ×10⁻⁶ cm/s; the efflux ratio at 150 min, 2 μM is 1.37.
